The record followed here is patent US20170022215A1, “Compounds for Eradicating or Inhibiting Proliferation of Cancer Stem Cells” (Godavari Biorefineries Limited, priority 2014, published 2017).

The test system of assay [1] is CD44 expressing population (cancer stem cells) of DU145 cells. Description: Flow cytometry analysis (anti-CD44-PE / anti-CD24-FITC staining) of DU145 prostate cancer cells. The class given is cell-based. The following applies: IC25 drug conc.; for effect on CD44 expressing cell population of DU145 cells (quadrant plot): 48 hrs exposure; for activity on CD44 expressing cells (cancer stem cells population) of DU145 cancer cells compared to standard therapeutic drug Cisplatin: 48 hrs, bar graph FIG. 10, versus Cisplatin. The procedure:
DU145 is a moderately metastatic prostate cancer cell line. Flow cytometry study was conducted to observe the effect of Ethyl-5-methyl-4-(phenylamino) thieno[2,3-d]pyrimidine-6-carboxylate and Ethyl-5-methyl-4-(4-methylphenyl)amino thieno[2,3-d]pyrimidine-6-carboxylate on DU145 cells compared to standard therapeutic drug Cisplatin.
(§1) 1. […] In the quadrant plot upper left region (Q2-UL) only CD44 expressing cells were observed. In the quadrant plot upper right region (Q2-UR) CD44 and CD24 expressing cells were observed. In the quadrant plot lower left region (Q2-LL) […]. In the quadrant plot lower right region (Q2-LR) […].
(In general: A flow cytometer gives signals particle by particle.)

In assay [2] the test system is CD44 expressing population (cancer stem cells) of MDA MB231 cells. Briefly: Flow cytometry analysis (anti-CD44-PE / anti-CD24-FITC staining) of MDA MB231 breast cancer cells. The class given is cell-based. The settings on record: IC25 drug conc.; for effect on CD44 expressing cell population of MDA MB231 cells (quadrant plot): 48 hrs exposure; for activity on CD44 expressing cells (cancer stem cells population) of MDA MB231 cancer cells compared to standard therapeutic drug Cisplatin: 48 hrs, bar graph FIG. 5, versus Cisplatin. On the procedure: MDA MB231 is a highly metastatic breast cancer cell line. Flow cytometry study was conducted to observe the effect of Ethyl-5-methyl-4-(phenylamino) thieno[2,3-d]pyrimidine-6-carboxylate and Ethyl-5-methyl-4-(4-methylphenyl)amino thieno[2,3-d]pyrimidine-6-carboxylate on MDA MB231 cells compared to standard therapeutic drug Cisplatin.
as §1

`N.N.[Cl][Pt][Cl]` [Cisplatin, reference compound]: in assay [1], the “effect on CD44 expressing cell population of DU145 cells (quadrant plot)” value (shortened to “effect … of DU145 cells (quadrant plot)”) is listed as “did not have much effect”. The “effect on CD44 expressing cell population of MDA MB231 cells (quadrant plot)” value (shortened to “effect … of MDA MB231 cells (quadrant plot)”) in assay [2] is given as “did not have much effect”.
With `CCOC(=O)c1sc2ncnc(Nc3ccc(C)cc3)c2c1C` [Ethyl-5-methyl-4-(4-methylphenyl)amino thieno[2,3-d]pyrimidine-6-carboxylate], in assay [1], the “effect … of DU145 cells (quadrant plot)” value is “marked effect”; the “activity on CD44 expressing cells (cancer stem cells population) of DU145 cancer cells compared to standard therapeutic drug Cisplatin” value is “much better and enhanced activity”. In addition, in assay [2], the “effect … of MDA MB231 cells (quadrant plot)” value is “marked effect”; the “activity on CD44 expressing cells (cancer stem cells population) of MDA MB231 cancer cells compared to standard therapeutic drug Cisplatin” value is “much better and enhanced activity”.
For the compound `CCOC(=O)c1sc2ncnc(Nc3ccccc3)c2c1C` [Ethyl-5-methyl-4-(phenylamino) thieno[2,3-d]pyrimidine-6-carboxylate], in assay [1], the “effect … of DU145 cells (quadrant plot)” value is recorded as “marked effect”; the “activity on CD44 expressing cells (cancer stem cells population) of DU145 cancer cells compared to standard therapeutic drug Cisplatin” value is “much better and enhanced activity”. Besides, in assay [2], the “effect … of MDA MB231 cells (quadrant plot)” value is reported as “marked effect”; the “activity on CD44 expressing cells (cancer stem cells population) of MDA MB231 cancer cells compared to standard therapeutic drug Cisplatin” value is “much better and enhanced activity”.
